The compounds below were run on panel of solid and haemotological tumor cell lines (e.g., Hs578t, SiHa, MDA-MB-231) (assay: MTS cell proliferation assay (cytotoxicity)). Details: Table 1 (Group 1), 72-96 hours, 10 mM lactate medium or RPMI 1640 medium, cell line not stated.
Type: cell-based
Method: The anti-proliferation effect of MCT inhibition was investigated across a panel of solid and haemotological tumor cell lines. Cells were routinely cultured in their appropriate growth medium. On day 1, between 10,000-25,000 cells/well (e.g., Hs578t: 15,000 cells/well, SiHa: 10,000 cells/well, and MDA-MB-231: 25,000 cells/well) were plated into 96-well plates. 100 μL. of phosphate buffered saline solution was added to the external wells to prevent media evaporation. Plates were incubated in growth medium overnight at 37° C. in the presence of 5% CO2. On day 2, dry weight compound stocks were dissolved to a concentration of 10 mM in 100% DMSO. Compounds were further diluted in the assay medium; 10 mM lactate medium (without glucose, pyruvate, and glutamine) or RPMI 1640 medium (without pyruvate and glutamine) to generate a final dose range of 1 nM to 10 μM. Growth medium in the 96-well plate was replaced with the assay medium (10 mM lactate medium or RPMI medium or appropriate medium), and compounds were added to each well in the plate at different concentrations via serial dilution or pre-prepared solutions in assay medium. Plates were then incubated at 37° C. in the presence of 5% CO2 for a further 72-96 hours. On day 2-5, assay media was changed to 100 uL of DMEM/F12 and 20 μL of CellTiter 96 AQ MTS reagent was added to each well and the plate was returned to the incubator for 1-2 hours. MTS is bioreduced by NADPH or NADH produced by dehydrogenase enzymes in metabolically active cells into a coloured formazan product that is soluble in tissue culture medium. The amount of coloured formazan product is directly proportional to the number of living cells in culture. The absorbance of the plates was read on a Spectramax M5e plate reader using […] measurement wavelength. Dose response curves were plotted and IC50 values were calculated using GraphPad Prism. The IC50 value is equivalent to the concentration of compound that causes 50% inhibition of growth calculated from the compound treated signal to the vehicle treated signal.
Cytotoxicity of selected compounds is listed in Table 1, where IC50: A=<1 uM; B=1-10 uM; C=>10 uM; and NT=Not Tested.

Structure (SMILES) | IC50
CN(Cc1cccc(F)c1)c1cc2oc(=O)c(C(=O)O)cc2s1 [Compound 1.003, 2-((3-fluorobenzyl)(methyl)amino)-5-oxo-5H-thieno[3,2-b]pyran-6-carboxylic acid] | < 1 µM
COc1cccc(CN(C)c2cc3oc(=O)c(C(=O)O)cc3s2)c1 [Compound 1.004, 2-((3-methoxybenzyl)(methyl)amino)-5-oxo-5H-thieno[3,2-b]pyran-6-carboxylic acid] | < 1 µM
CN(CC1CCCCC1)c1cc2oc(=O)c(C(=O)O)cc2s1 [Compound 1.005, 2-((cyclohexylmethyl)(methyl)amino)-5-oxo-5H-thieno[3,2-b]pyran-6-carboxylic acid] | < 1 µM
CN(Cc1cccc(C(F)(F)F)c1)c1cc2oc(=O)c(C(=O)O)cc2s1 [Compound 1.006, 2-(methyl(3-(trifluoromethyl)benzyl)amino)-5-oxo-5H-thieno[3,2-b]pyran-6-carboxylic acid] | < 1 µM
CN(Cc1cc(C(F)(F)F)cc(C(F)(F)F)c1)c1cc2oc(=O)c(C(=O)O)cc2s1 [Compound 1.007, 2-((3,5-bis(trifluoromethyl)benzyl)(methyl)amino)-5-oxo-5H-thieno[3,2-b]pyran-6-carboxylic acid] | < 1 µM
CN(CC1CCOCC1)c1cc2oc(=O)c(C(=O)O)cc2s1 [Compound 1.008, 2-(methyl((tetrahydro-2H-pyran-4-yl)methyl)amino)-5-oxo-5H-thieno[3,2-b]pyran-6-carboxylic acid] | < 1 µM
CN(C(=O)C1CCCCC1)c1cc2oc(=O)c(C(=O)O)cc2s1 [Compound 1.010, 2-(N-methylcyclohexanecarboxamido)-5-oxo-5H-thieno[3,2-b]pyran-6-carboxylic acid] | < 1 µM
CN(C(=O)c1ccc(F)cc1)c1cc2oc(=O)c(C(=O)O)cc2s1 [Compound 1.011, 2-(4-fluoro-N-methylbenzamido)-5-oxo-5H-thieno[3,2-b]pyran-6-carboxylic acid] | < 1 µM
CN1CCC(CN(C)c2cc3oc(=O)c(C(=O)O)cc3s2)CC1 [Compound 1.012, 2-(methyl((1-methylpiperidin-4-yl)methyl)amino)-5-oxo-5H-thieno[3,2-b]pyran-6-carboxylic acid] | < 1 µM
CN(Cc1cccnc1)c1cc2oc(=O)c(C(=O)O)cc2s1 [Compound 1.013, 2-(methyl(pyridin-3-ylmethyl)amino)-5-oxo-5H-thieno[3,2-b]pyran-6-carboxylic acid] | < 1 µM
CN(Cc1cccs1)c1cc2oc(=O)c(C(=O)O)cc2s1 [Compound 1.014, 2-(methyl(thiophen-2-ylmethyl)amino)-5-oxo-5H-thieno[3,2-b]pyran-6-carboxylic acid] | < 1 µM
CN(C(=O)c1cccc(C(F)(F)F)c1)c1cc2oc(=O)c(C(=O)O)cc2s1 [Compound 1.015, 2-[Methyl-(3-trifluoromethyl-benzoyl)-amino]-5-oxo-5H-thieno[3,2-b]pyran-6-carboxylic acid] | < 1 µM
COc1ccc(C(=O)N(C)c2cc3oc(=O)c(C(=O)O)cc3s2)cc1 [Compound 1.016, 2-[(4-Methoxy-benzoyl)-methyl-amino]-5-oxo-5H-thieno[3,2-b]pyran-6-carboxylic acid] | < 1 µM
CN(C(=O)C1CCOCC1)c1cc2oc(=O)c(C(=O)O)cc2s1 [Compound 1.018, 2-[Methyl-(tetrahydro-pyran-4-carbonyl)-amino]-5-oxo-5H-thieno[3,2-b]pyran-6-carboxylic acid] | < 1 µM
COc1cc(C(=O)N(C)c2cc3oc(=O)c(C(=O)O)cc3s2)ccc1F [Compound 1.019, 2-[(4-Fluoro-3-methoxy-benzoyl)-methyl-amino]-5-oxo-5H-thieno[3,2-b]pyran-6-carboxylic acid] | < 1 µM
CN(C(=O)c1ccc(C(F)(F)F)cc1)c1cc2oc(=O)c(C(=O)O)cc2s1 [Compound 1.020, 2-[Methyl-(4-trifluoromethyl-benzoyl)-amino]-5-oxo-5H-thieno[3,2-b]pyran-6-carboxylic acid] | < 1 µM
COc1ccc(CN(C)c2cc3oc(=O)c(C(=O)O)cc3s2)cc1 [Compound 1.021, 2-[(4-Methoxy-benzyl)-methyl-amino]-5-oxo-5H-thieno[3,2-b]pyran-6-carboxylic acid] | < 1 µM
COc1ccccc1CN(C)c1cc2oc(=O)c(C(=O)O)cc2s1 [Compound 1.022, 2-[(2-Methoxy-benzyl)-methyl-amino]-5-oxo-5H-thieno[3,2-b]pyran-6-carboxylic acid] | < 1 µM
CN(Cc1ccc(C(F)(F)F)cc1)c1cc2oc(=O)c(C(=O)O)cc2s1 [Compound 1.023, 2-[Methyl-(4-trifluoromethyl-benzyl)-amino]-5-oxo-5H-thieno[3,2-b]pyran-6-carboxylic acid] | < 1 µM
COc1cccc(S(=O)(=O)N(C)c2cc3oc(=O)c(C(=O)O)cc3s2)c1 [Compound 1.024, 2-[(3-Methoxy-benzenesulfonyl)-methyl-amino]-5-oxo-5H-thieno[3,2-b]pyran-6-carboxylic acid] | < 1 µM
COc1ccc(S(=O)(=O)N(C)c2cc3oc(=O)c(C(=O)O)cc3s2)cc1 [Compound 1.025, 2-[(4-Methoxy-benzenesulfonyl)-methyl-amino]-5-oxo-5H-thieno[3,2-b]pyran-6-carboxylic acid] | < 1 µM
CN(c1cc2oc(=O)c(C(=O)O)cc2s1)S(=O)(=O)c1ccc(F)cc1 [Compound 1.026, 2-[(4-Fluoro-benzenesulfonyl)-methyl-amino]-5-oxo-5H-thieno[3,2-b]pyran-6-carboxylic acid] | < 1 µM
CN(c1cc2oc(=O)c(C(=O)O)cc2s1)S(=O)(=O)c1ccc(C(F)(F)F)cc1 [Compound 1.027, 2-[Methyl-(4-trifluoromethyl-benzenesulfonyl)-amino]-5-oxo-5H-thieno[3,2-b]pyran-6-carboxylic acid] | < 1 µM
CN(c1cc2oc(=O)c(C(=O)O)cc2s1)S(=O)(=O)c1cccc(C(F)(F)F)c1 [Compound 1.028, 2-[Methyl-(3-trifluoromethyl-benzenesulfonyl)-amino]-5-oxo-5H-thieno[3,2-b]pyran-6-carboxylic acid] | < 1 µM
O=C(O)c1cc2sccc2oc1=O [Compound 1.029, 5-oxo-5H-thieno[3,2-b]pyran-6-carboxylic acid] | 1 to 10 µM

Same assay, conditions: Table 2 (Group 2), 72-96 hours, 10 mM lactate medium or RPMI 1640 medium, cell line not stated

Structure (SMILES) | IC50
CN(C(=O)Nc1ccccc1Cl)c1cc2oc(=O)c(C(=O)O)cc2s1 [Compound 2.001, 2-(3-(2-chlorophenyl)-1-methylureido)-5-oxo-5H-thieno[3,2-b]pyran-6-carboxylic acid] | < 1 µM
COc1ccccc1NC(=O)N(C)c1cc2oc(=O)c(C(=O)O)cc2s1 [Compound 2.002, 2-(3-(2-methoxyphenyl)-1-methylureido)-5-oxo-5H-thieno[3,2-b]pyran-6-carboxylic acid] | < 1 µM
COc1cccc(NC(=O)N(C)c2cc3oc(=O)c(C(=O)O)cc3s2)c1 [Compound 2.003, 2-(3-(3-methoxyphenyl)-1-methylureido)-5-oxo-5H-thieno[3,2-b]pyran-6-carboxylic acid] | < 1 µM
CN(C(=O)Nc1ccc(Cl)cc1)c1cc2oc(=O)c(C(=O)O)cc2s1 [Compound 2.004, 2-(3-(4-chlorophenyl)-1-methylureido)-5-oxo-5H-thieno[3,2-b]pyran-6-carboxylic acid] | < 1 µM
CN(C(=O)Nc1ccc(F)cc1)c1cc2oc(=O)c(C(=O)O)cc2s1 [Compound 2.005, 2-(3-(4-fluorophenyl)-1-methylureido)-5-oxo-5H-thieno[3,2-b]pyran-6-carboxylic acid] | < 1 µM
COc1ccc(NC(=O)N(C)c2cc3oc(=O)c(C(=O)O)cc3s2)cc1OC [Compound 2.006, 2-(3-(3,4-dimethoxyphenyl)-1-methylureido)-5-oxo-5H-thieno[3,2-b]pyran-6-carboxylic acid] | < 1 µM
CN(C(=O)NC1CCCCC1)c1cc2oc(=O)c(C(=O)O)cc2s1 [Compound 2.007, 2-(3-cyclohexyl-1-methylureido)-5-oxo-5H-thieno[3,2-b]pyran-6-carboxylic acid] | < 1 µM
COc1ccc(NC(=O)N(C)c2cc3oc(=O)c(C(=O)O)cc3s2)cc1 [Compound 2.008, 2-(3-(4-methoxyphenyl)-1-methylureido)-5-oxo-5H-thieno[3,2-b]pyran-6-carboxylic acid] | < 1 µM
CCOc1cccc(NC(=O)N(C)c2cc3oc(=O)c(C(=O)O)cc3s2)c1 [Compound 2.009, 2-(3-(3-ethoxyphenyl)-1-methylureido)-5-oxo-5H-thieno[3,2-b]pyran-6-carboxylic acid] | < 1 µM
